Patent US4681893A, “Trans-6-[2-(3- or 4-carboxamido-substituted pyrrol-1-yl)alkyl]-4-hydroxypyran-2-one inhibitors of cholesterol synthesis” (Warner-Lambert Company, priority 1986, dated 1987)

What was measured:
[1] = system: biosynthesis of cholesterol (sterol synthesis) in rat liver homogenate; assay: CSI screen: inhibition of sterol synthesis (incorporation of cholesterol-14C-acetate into nonsaponifiable lipid) by rat liver homogenate; format: biochemical; details: one-hour period, cholestyramine-fed rats, read-out: IC50 (Micromoles/liter) CSI
Experimental: The ability of compounds of the present invention to inhibit the biosynthesis of cholesterol was measured by two methods. A first method (designated CSI screen) utilized the procedure described by R. E. Dugan et al., Archiv. Biochem. Biophys., (1972), 152, 21-27. In this method, the level of HMG-CoA enzyme activity in standard laboratory rats is increased by feeding the rats a chow diet containing 5% cholestyramine for four days, after which the rats are sacrificed.
The rat livers are homogenized, and the incorporation of cholesterol-^14 C-acetate into nonsaponifiable lipid by the rat liver homogenate is measured. The micromolar concentration of compound required for 50% inhibition of sterol synthesis over a one-hour period is measured, and expressed as an IC50 value.

HMG-CoA reductase = target: T1, HMG-CoA reductase (Rattus norvegicus, UniProt P51639); assay: COR screen: conversion of 14C-HMG-CoA to 14C-mevalonate by a purified HMG-CoA reductase preparation; format: biochemical; details: purified enzyme preparation of HMG-CoA reductase, read-out: IC50 (Micromoles/liter) COR
T1 sequence (P51639 1-887): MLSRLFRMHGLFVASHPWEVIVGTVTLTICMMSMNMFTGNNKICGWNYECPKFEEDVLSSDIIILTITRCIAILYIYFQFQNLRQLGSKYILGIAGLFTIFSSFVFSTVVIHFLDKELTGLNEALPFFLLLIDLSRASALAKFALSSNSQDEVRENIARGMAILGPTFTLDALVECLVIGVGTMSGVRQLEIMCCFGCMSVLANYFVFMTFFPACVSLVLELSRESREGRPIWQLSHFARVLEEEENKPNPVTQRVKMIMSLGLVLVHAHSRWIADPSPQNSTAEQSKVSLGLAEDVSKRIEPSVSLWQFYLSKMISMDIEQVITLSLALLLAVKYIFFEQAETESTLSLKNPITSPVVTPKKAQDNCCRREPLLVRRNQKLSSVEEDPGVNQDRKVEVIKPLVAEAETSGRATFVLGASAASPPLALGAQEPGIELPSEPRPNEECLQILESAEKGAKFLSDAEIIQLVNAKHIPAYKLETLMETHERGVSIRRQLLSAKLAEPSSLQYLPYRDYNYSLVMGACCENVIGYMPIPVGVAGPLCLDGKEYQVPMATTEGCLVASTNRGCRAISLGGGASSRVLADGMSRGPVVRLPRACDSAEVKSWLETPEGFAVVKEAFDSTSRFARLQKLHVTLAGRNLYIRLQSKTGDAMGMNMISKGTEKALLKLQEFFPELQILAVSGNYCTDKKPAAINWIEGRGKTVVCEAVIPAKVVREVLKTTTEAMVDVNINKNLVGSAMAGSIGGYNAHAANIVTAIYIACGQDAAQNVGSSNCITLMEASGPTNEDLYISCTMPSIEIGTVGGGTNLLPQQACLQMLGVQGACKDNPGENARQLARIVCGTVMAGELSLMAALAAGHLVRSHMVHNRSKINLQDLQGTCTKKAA
Experimental: A second method (designated COR screen) employed the procedure detailed by T. Kita, et al., J. Clin. Invest., (1980), 66: 1094-1100. In this method, the amount of ^14 C-HMG-CoA converted to ^14 C-mevalonate in the presence of a purified enzyme preparation of HMG-CoA reductase was measured. The micromolar concentration of compound required for 50% inhibition of cholesterol synthesis was measured and recorded as an IC50 value.

Q: `CC(C)c1c(C(=O)Nc2ccccc2)c(-c2ccccc2)c(-c2ccc(F)cc2)n1CC[C@H]1C[C@H](O)CC(=O)O1` (relative stereo) [Compound 1, trans-5-(4-fluorophenyl)-2-(1-methylethyl)-N,4-diphenyl-1-[2-(tetrahydro-4-hydroxy-6-oxo-2H-pyran-2-yl)ethyl]-1H-pyrrole-3-carboxamide] was tested. Which IC50 [1] did it give?
A: 35 nM

Q: And the IC50 (HMG-CoA reductase)?
A: 50 nM

Q: Which IC50 [1] does the source give for `O=C1C[C@@H](O)C[C@H](CCn2c(-c3ccc(F)cc3)c(C(=O)Nc3ccccc3)c(-c3ccccc3)c2C(F)(F)F)O1` (relative stereo) [Compound 2, trans-2-(4-fluorophenyl)-N,4-diphenyl-1-[2-(tetrahydro-4-hydroxy-6-oxo-2H-pyran-2-yl)ethyl]-5-(trifluoromethyl)-pyrrole-3-carboxamide] here?
A: 400 nM

Q: And the IC50 (HMG-CoA reductase)?
A: 400 nM

Q: How did the IC50 [1] turn out when `O=C1C[C@@H](O)C[C@H](CCn2c(-c3ccc(F)cc3)c(-c3ccccc3)c(C(=O)Nc3ccccc3)c2C(F)(F)F)O1` (relative stereo) [Compound 3, trans-5-(4-fluorophenyl)-N,4-diphenyl-1-[2-(tetrahydro-4-hydroxy-6-oxo-2H-pyran-2-yl)ethyl]-2-(trifluoromethyl)-pyrrole-3-carboxamide] was run?
A: 18 nM

Q: And the IC50 (HMG-CoA reductase)?
A: 20 nM

Q: With `CC[C@H](C)C(=O)O[C@H]1CCC=C2C=C[C@H](C)[C@H](CC[C@@H]3C[C@@H](O)CC(=O)O3)[C@H]21` [Compactin, reference compound] as the molecule, how does the IC50 [1] read?
A: 26 nM
